Experimental data reported in patent publication US10092568B2, “CBP/Catenin antagonists for enhancing asymmetric division of somatic stem cells” (University of Southern California, priority 2010, dated 2018).
“Also recorded” adds a separate entry of the source.

Legend:
[1] = target: p300 (Homo sapiens, UniProt Q09472); assay: Binding to coactivator p300
Text: (§1) ICG-001. Applicant's pharmacologic tools were identified using cell-based forward chemical genomic screens of small molecule secondary structure template chemical libraries (22).

[2] = tested on: NOD/SCIDIL2R gamma−/− mice; assay: Leukemia mouse model, hair growth and wound healing; format: in vivo; conditions: 50 mg/kg/d with VDL versus VDL only
Description: NOD/SCIDIL2R gamma−/− mice were shaved and sublethally irradiated prior intravenous injection of 50,000 cells per animal. Leukemic animals were treated with a combination of intraperitoneally administered vincristine/dexamethasone/L-Aspariginase (VDL) and ICG-001 (50 mg/kg/d), which was delivered via subcutaneous osmotic pumps to ensure stable plasma levels, with VDL only as a control for 20 days. The animals were checked periodically for survival, hair growth, and wound healing.

[3] = tested on: Wnt/catenin transcription (TOPFLASH) in SW480 colon carcinoma cells; assay: TOPFLASH TCF/catenin luciferase reporter in SW480 colon carcinoma cells; format: cell-based; conditions: Homo sapiens
Text: as §1

[4] = tested on: fibroblasts from IPF patients; assay: S100A4/FSP-1 expression in fibroblasts from IPF patients in vitro; format: cell-based
Text: Fibrosis. Idiopathic pulmonary fibrosis (IPF)/usual interstitial pneumonia (UIP), the most common of the idiopathic interstitial pneumonias, is a devastating, progressive disorder characterized by excessive fibroblast proliferation and extracellular matrix remodeling leading to lung destruction. There is currently no effective therapy for this uniformly fatal disease. An emerging paradigm proposes a central role for alveolar epithelial cell injury and dysregulated repair in the pathogenesis of IPF. Injury to the epithelium is thought to initiate a cascade of fibroblast activation and matrix deposition, which in predisposed hosts fails to resolve as it would in the course of normal wound repair. Epithelial cells undergo excessive apoptosis, whereas fibroblasts are less amenable to apoptosis and manifest increased survival. The well-characterized model of bleomycin-induced lung injury has been extensively used to investigate potential pathways involved in the pathogenesis of pulmonary fibrosis and to explore therapeutic approaches.

[5] = tested on: SW620 xenograft; assay: Nude mouse SW620 xenograft model of colon cancer; format: in vivo
Text: (§2) Cancer. The importance of Wnt signaling in colorectal cancer is undisputed. Applicant's investigation on the therapeutic utility of ICG-001 therefore quite naturally began with colon cancer.

[6] = tested on: Adenosine Receptor A2B (ADORA2B); assay: Gene expression array of cells in culture; format: cell-based; conditions: colonic epithelium, 10 uM
[7] = tested on: Colorectal cancer cells; assay: ChIP and message of Wnt/beta-catenin target genes in colorectal cancer cells; format: cell-based
Description: The effects of CBP/catenin antagonism on Wnt target genes are highly promoter specific. Colorectal cancer cells were treated with ICG-001, thereby disrupting the CBP/catenin interaction, and then examined for coactivator occupancy at the promoter regions of several Wnt/beta-catenin regulated target genes using a Chromatin Immuno-precipitation Assay (ChIP), a technique that allows one to determine what proteins are associated with a particular promoter. […] Furthermore, there are other Wnt/catenin-regulated genes that selectively utilize p300 for transcriptional coactivation. An interesting example of this differential coactivator usage concerns the expression of the gene EphB2, a known Wnt/TCF/beta-catenin target gene. As almost 90% of colon cancers have high aberrant Wnt/TCF/beta-catenin activation, it would follow that EpHB2 expression would be increased with colon cancer disease progression. This, however, is not the case as EphB2 expression is generally lost in late stage colorectal cancers (34). Furthermore, disruption of EphB2 in the Min mouse, which carries a defective APC tumor suppressor gene, results in highly invasive carcinomas as opposed to the normal adenomas.

[8] = tested on: MDA-MB-231 cells; assay: Stem cell markers in triple negative breast cancer cell line; format: cell-based
Text: This phenotype CD44^hi, CD24^lo has been associated with a subpopulation of cells that behave like a breast cancer stem/tumor initiating cell population (51). […] Beyond reduction of survivin message level, there is a gene expression profile consistent with the occurrence of a mesenchymal to epithelial (MET) transition (i.e., decreased expression of twist, vimentin and S100A4 and an increase in E-cadherin expression). Recently, there have been a number of papers, which have correlated epithelial to mesenchymal transition (EMT) with a CSC phenotype (52). EMT is a normal physiologic process that is important in development and in adults, for example in wound healing, but pathophysiologically is associated with tumor metastasis and organ fibrosis (see later discussion on fibrosis). Specific CBP/catenin antagonists can reverse this aberrant EMT in vivo (EMT also plays a critical role in the skin in hair loss etc. J Dermatol Sci. 2011 Jan; 61(1):7-13. Epub 2010 Dec. 5; epithelial-mesenchymal transition (EMT) plays important roles not only in the morphogenesis but also in wound repair, tissue fibrosis and cancer progression. Recently, regulatory mechanism of this process has been elaborately elucidated. EMT can be a new therapeutic target for treating skin ulcer, fibrosing alopecia, and malignant cutaneous cancers, including squamous cell carcinoma and melanoma).

[9] = tested on: imatinib resistant (IR) CML cells / leukemia stem cells; assay: Imatinib resistant CML, in vitro and NOD/SCID/IL2rγ−/− mouse model of engrafted human CML; format: in vivo
Text: Chronic myelogenous leukemia (CML). Despite the stunning clinical success achieved to date in chronic phase CML patients treated with the BCR-ABL antagonist Gleevec/Imatinib (IM), responses in advanced phase patients are often short-lived, and patients invariably undergo disease progression. Furthermore, resistance to IM develops in 2% to 4% of patients annually and IM dose escalation is generally not sufficient to control the disease. Several mechanisms that contribute to tyrosine kinase inhibitor (TKI) resistance have been proposed including the insensitivity of quiescent CML stem cells to TKIs due to low expression of BCR-ABL and the emergence of drug resistant leukemic clones associated with increased nuclear catenin levels, a hallmark of increased Wnt/catenin transcription. […] Epigenetic silencing of negative regulators of the Wnt signaling cascade is also frequently associated with leukemias, including CML. […] The mice treated with one course (28 days from day 13-41 after leukemia engraftment) of CBP/catenin antagonist plus bcr-abl antagonist are essentially cured of leukemia and live as long (approximately 2 years) as their littermates that were never engrafted with leukemia.

[10] = tested on: Min mouse; assay: Min mouse polyp model; format: in vivo
Text: as §2

[11] = tested on: ER alpha receptor; assay: ER alpha re-expression in triple negative breast cancer; format: cell-based

Sequence of p300 (Q09472 whole entry, species assumed): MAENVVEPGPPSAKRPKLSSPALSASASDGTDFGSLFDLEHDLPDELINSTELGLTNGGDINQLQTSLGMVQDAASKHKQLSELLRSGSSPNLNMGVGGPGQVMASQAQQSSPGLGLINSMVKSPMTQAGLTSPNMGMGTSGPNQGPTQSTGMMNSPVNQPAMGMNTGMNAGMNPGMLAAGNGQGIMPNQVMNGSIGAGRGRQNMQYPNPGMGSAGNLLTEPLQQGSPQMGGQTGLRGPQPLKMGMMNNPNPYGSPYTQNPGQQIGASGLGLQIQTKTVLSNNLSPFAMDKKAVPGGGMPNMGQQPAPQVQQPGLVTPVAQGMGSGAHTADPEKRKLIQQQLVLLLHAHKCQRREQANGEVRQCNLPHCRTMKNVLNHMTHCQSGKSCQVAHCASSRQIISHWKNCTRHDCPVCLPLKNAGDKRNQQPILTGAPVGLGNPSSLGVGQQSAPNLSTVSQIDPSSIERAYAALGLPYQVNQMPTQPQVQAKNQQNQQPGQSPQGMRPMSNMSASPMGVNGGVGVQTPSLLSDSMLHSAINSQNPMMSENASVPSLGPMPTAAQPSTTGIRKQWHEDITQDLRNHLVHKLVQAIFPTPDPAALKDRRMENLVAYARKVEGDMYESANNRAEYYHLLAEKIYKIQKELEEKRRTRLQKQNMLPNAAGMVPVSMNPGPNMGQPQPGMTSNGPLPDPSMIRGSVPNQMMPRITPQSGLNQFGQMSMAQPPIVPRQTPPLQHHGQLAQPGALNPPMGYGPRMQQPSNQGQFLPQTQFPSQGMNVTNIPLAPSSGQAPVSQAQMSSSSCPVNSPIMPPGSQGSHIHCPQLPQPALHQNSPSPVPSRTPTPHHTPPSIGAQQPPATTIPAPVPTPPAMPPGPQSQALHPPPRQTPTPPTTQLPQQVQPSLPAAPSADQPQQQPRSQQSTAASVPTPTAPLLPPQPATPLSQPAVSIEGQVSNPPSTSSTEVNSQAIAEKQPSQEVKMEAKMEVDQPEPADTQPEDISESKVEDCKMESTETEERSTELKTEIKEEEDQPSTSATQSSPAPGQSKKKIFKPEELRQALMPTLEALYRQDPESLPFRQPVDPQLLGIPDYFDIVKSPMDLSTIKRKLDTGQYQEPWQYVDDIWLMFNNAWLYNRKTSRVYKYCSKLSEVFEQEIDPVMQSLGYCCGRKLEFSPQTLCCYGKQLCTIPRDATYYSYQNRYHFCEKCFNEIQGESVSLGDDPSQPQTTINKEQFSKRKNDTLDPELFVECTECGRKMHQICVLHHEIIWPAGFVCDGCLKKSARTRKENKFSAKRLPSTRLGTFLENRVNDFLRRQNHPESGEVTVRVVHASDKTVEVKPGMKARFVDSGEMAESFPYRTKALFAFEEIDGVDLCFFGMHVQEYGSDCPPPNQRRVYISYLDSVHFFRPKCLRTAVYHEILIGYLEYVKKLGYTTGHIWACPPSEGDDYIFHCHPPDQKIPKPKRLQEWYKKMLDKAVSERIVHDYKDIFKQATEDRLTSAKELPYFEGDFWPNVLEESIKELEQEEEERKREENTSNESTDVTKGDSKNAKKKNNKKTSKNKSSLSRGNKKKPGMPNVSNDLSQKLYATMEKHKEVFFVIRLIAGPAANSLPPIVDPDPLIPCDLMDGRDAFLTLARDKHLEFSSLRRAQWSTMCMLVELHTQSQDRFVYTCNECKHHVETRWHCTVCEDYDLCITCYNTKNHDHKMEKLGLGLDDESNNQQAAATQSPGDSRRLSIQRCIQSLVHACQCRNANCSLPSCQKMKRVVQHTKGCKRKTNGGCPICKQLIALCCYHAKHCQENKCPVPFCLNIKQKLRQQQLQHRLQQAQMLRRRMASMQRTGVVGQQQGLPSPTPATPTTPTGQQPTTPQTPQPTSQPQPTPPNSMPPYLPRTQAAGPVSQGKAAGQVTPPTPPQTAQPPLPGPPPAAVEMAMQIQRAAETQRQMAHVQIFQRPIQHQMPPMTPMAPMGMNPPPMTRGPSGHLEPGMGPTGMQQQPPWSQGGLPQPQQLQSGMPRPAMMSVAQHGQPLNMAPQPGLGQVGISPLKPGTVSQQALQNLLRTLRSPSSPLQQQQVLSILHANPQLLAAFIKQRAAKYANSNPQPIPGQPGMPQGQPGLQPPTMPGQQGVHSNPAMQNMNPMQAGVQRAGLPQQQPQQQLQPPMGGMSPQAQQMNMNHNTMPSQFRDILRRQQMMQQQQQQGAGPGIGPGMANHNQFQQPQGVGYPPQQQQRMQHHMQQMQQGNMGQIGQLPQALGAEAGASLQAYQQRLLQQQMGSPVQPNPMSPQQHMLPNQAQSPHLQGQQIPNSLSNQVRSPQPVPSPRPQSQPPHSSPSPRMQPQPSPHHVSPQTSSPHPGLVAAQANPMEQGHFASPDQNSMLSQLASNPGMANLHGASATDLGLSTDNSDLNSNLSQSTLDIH

binding to p300 [1]: not to its closely related homolog p300
IC50 [3]: 30 µM
effects on normal endogenous hematopoiesis ([9]; mouse, in vivo): without deleterious effects
expression of the ER alpha receptor [11]: re-expression
Compound: O=C1[C@H](Cc2ccc(O)cc2)N2C(=O)CCN(C(=O)NCc3ccccc3)[C@H]2CN1Cc1cccc2ccccc12 [ICG-001]
healing of wounds from pump insertion [2]: had substantial improved; also recorded: heal quicker
hair growth of shaved area ([2]; within two weeks): had regrown their hair; also recorded: substantial hair growth
expression of S100A4/FSP-1 [4]: significantly decreased
tumor growth [5]: reducing tumor growth
increase of expression of adenosine receptors (ADORA2B) [6]: ~10 ×
expression of EphB2 ([7]; colon cancer cells): increasing the expression
c-myc message ([7]; colorectal cancer cells): slight increase in message
cyclin D1 message ([7]; colorectal cancer cells): decrease in message
survivin message ([7]; colorectal cancer cells): decreased message
ALDH activity [8]: dramatically decreases
side population (SP) [8]: dramatically decreases
recruitment of p300 to the CD24 promoter ([8]; ChIP): increased recruitment
CD44 expression ([8]; MDA-MB-231): decreasing
expression of cell surface CD24 ([8]; MDA-MB-231, 24h): significantly increased
drug resistant leukemia stem cells ([9]; NOD/SCID/IL2rγ−/− mice engrafted with human CML): can be eliminated
differentiation of the IR cells ([9]; in vitro and in vivo): induces the differentiation
polyps [10]: reducing polyps
